Experimental data published in the NIST ThermoML archive (doi:10.1021/je400407z).

Details: Liquid, Closed cell (Static) method

FC(F)CC(F)(F)F [1,1,1,3,3-pentafluoropropane]
Details | vapor or sublimation pressure [kPa]
260.32 K | 28.52
272.13 K | 50.91
281.15 K | 75.62
293.31 K | 122.98
305.49 K | 192.78
313.62 K | 254.28
321.4 K | 324.38
333.49 K | 467.72
345.16 K | 642.26
351.47 K | 754.32
364 K | 1028.2
377.04 K | 1378.2

C=C(Cl)C(F)(F)F [2-chloro-3,3,3-trifluoro-1-propene]
Details | vapor or sublimation pressure [kPa]
263.25 K | 43.43
264.27 K | 45.2
265.23 K | 47.13
266.27 K | 48.88
267.16 K | 51.02
267.22 K | 50.69
268.2 K | 52.65
269.08 K | 55.2
270.04 K | 57.24
270.94 K | 59.24
270.95 K | 59.34
271.9 K | 61.45
273.85 K | 66.42
274.8 K | 68.69
275.39 K | 70.68
277.03 K | 75.24
277.96 K | 77.86
278.77 K | 80.2
278.99 K | 81.33
279.8 K | 83.72
280.56 K | 85.87
281.62 K | 89.39
282.8 K | 93.36
283.65 K | 95.62
284.51 K | 98.59
285.1 K | 100.84
286.15 K | 103.78
287.18 K | 107.59
288.59 K | 113.2
289.24 K | 115.72
290.31 K | 120.08
292.2 K | 128.29
294.48 K | 138.49
296.12 K | 146.32
297.41 K | 152.85
298.46 K | 158.2
299.53 K | 164.03
300.22 K | 167.73
301.38 K | 174.15
303.03 K | 183.59
304.22 K | 191.32
305.36 K | 198.32
306.37 K | 205.25
307.38 K | 212.61
308.45 K | 219.76
309.44 K | 226.88
311.14 K | 239.23
312.65 K | 250.71
313.32 K | 255.58
314.65 K | 265.41
315.41 K | 271.67
316.41 K | 279.99
317.54 K | 288.86
318.54 K | 296.49
319.54 K | 305.35
320.2 K | 312.84
321.51 K | 323.9
322.28 K | 330.9
322.39 K | 331.79
323.27 K | 340.55
324.4 K | 351.13
325.16 K | 359.71
326.17 K | 370.1
327.54 K | 383.61
328.16 K | 390.36
329.38 K | 402.72
330.27 K | 412.59
331.36 K | 424.58
332.28 K | 434.81
333.1 K | 444.59
333.37 K | 447.55
334.34 K | 462.26
335.18 K | 468.47
336.2 K | 480.83
337.33 K | 494.73
338.3 K | 506.41
339.24 K | 518.13
340.43 K | 533.53
341.35 K | 545.17
342.25 K | 558.82
342.53 K | 561.23
344.38 K | 589.61
345.78 K | 613.34
346.77 K | 629.58
347.88 K | 646.33
348.77 K | 660.14
349.98 K | 679.92
350.86 K | 695.77
352.84 K | 728.61
354.89 K | 762.84
356.87 K | 799.73
358.89 K | 838.22
360.78 K | 874.39
362.63 K | 916.57
364.64 K | 957.2
366.88 K | 1003.7
368.89 K | 1047.8
370.88 K | 1093
372.9 K | 1138.9
